These results are taken from PubChem BioAssay (NCI).

SMILES strings stand for the structures.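 Protocol summary: plate cells (96-well), add compound at 5 concentrations, incubate 48 h, interpolate endpoints linearly. At the GI50, growth is halved. Definition used: TGI = concentration required for complete inhibition of growth.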

Test systems include MDA-MB-231 breast; A498 renal; SN12C renal; HOP-92 NSCLC; SR leukemia; BT-549 breast; NCI-H226 lung; DU-145 prostate; RXF 393 renal; HCT-116 colon.
Holding throughout (test): NCI anticancer screen, dose series, 48 h

On to `CC(C)(C)c1cc(O)c(O)c(C(C)(C)C)c1`, for which the GI50 in the assay with MDA-MB-231 breast was 8.55 µM; in the assay on A498 renal, 6.19 µM; in the assay on SN12C renal, 4.82 µM; in the assay with HOP-92 NSCLC, 1.36 µM; with SR leukemia, 2.38 µM; in the assay with BT-549 breast, 8.71 µM. In addition, the GI50 was 6.35 µM in the assay on NCI-H226 lung, 4.6 µM in the assay with DU-145 prostate, 4.4 µM in the assay with RXF 393 renal and 1.83 µM in the assay on HCT-116 colon. Further, the TGI in the assay with MDA-MB-231 breast turned out to be 23.2 µM; with A498 renal, 19.8 µM; with SN12C renal, 21.3 µM; in the assay with HOP-92 NSCLC, 4.6 µM; in the assay on SR leukemia it was 6.64 µM; in the assay with BT-549 breast, 21 µM. Further, the TGI with NCI-H226 lung came out at 22.8 µM; with DU-145 prostate, 15.8 µM; in the assay on RXF 393 renal, 13.5 µM; in the assay with HCT-116 colon, 3.41 µM.

On to `O=C1/C(=C/c2ccc(F)cc2)CCOc2ccc([N+](=O)[O-])cc21`, for which the GI50 with MDA-MB-231 breast was 13.3 µM; in the assay on A498 renal, 17.4 µM; with SN12C renal, 6.97 µM; in the assay on HOP-92 NSCLC it was 4.45 µM; in the assay with SR leukemia it was 2.07 µM; with BT-549 breast, 3 µM. Also, the GI50 is 20.1 µM with NCI-H226 lung, 5.68 µM in the assay with DU-145 prostate, 1.71 µM in the assay with RXF 393 renal and 1.5 µM with HCT-116 colon. For the same compound, the TGI in the assay with MDA-MB-231 breast turned out to be 31.9 µM; with A498 renal, 35 µM; in the assay with SN12C renal, 21 µM; with HOP-92 NSCLC it was 40.2 µM; in the assay on SR leukemia, 6.35 µM; in the assay with BT-549 breast, 7.82 µM. Besides, the TGI was found to be 39.6 µM in the assay with NCI-H226 lung, 18.1 µM with DU-145 prostate, 3.7 µM in the assay on RXF 393 renal and 3.01 µM in the assay on HCT-116 colon.

`COC(=O)C(=O)CC(=O)CCn1ncc(Cl)c(Cl)c1=O`: the GI50 in the assay on MDA-MB-231 breast is 7.88 µM; with BT-549 breast, 14.4 µM; with DU-145 prostate, 18.3 µM. Further, the TGI worked out at 20.7 µM in the assay on MDA-MB-231 breast; 49.6 µM in the assay on A498 renal; 29.9 µM in the assay with SN12C renal; 28.2 µM in the assay on HOP-92 NSCLC; 5.76 µM with SR leukemia; 27.7 µM with BT-549 breast. Moreover, the TGI in the assay with NCI-H226 lung is 39.3 µM; in the assay with DU-145 prostate, 35 µM; in the assay on RXF 393 renal, 33.9 µM; in the assay with HCT-116 colon it was 23.7 µM.

With `CCOc1ccc(S(=O)(=O)/N=C2\C=C(SCC(=O)O)C(=O)c3ccccc32)cc1`, the GI50 is 2.84 µM in the assay on MDA-MB-231 breast; 21.6 µM with A498 renal; 2.15 µM with SN12C renal; 2.61 µM in the assay on HOP-92 NSCLC; 0.538 µM in the assay on SR leukemia; 4.66 µM in the assay on BT-549 breast. In addition, the GI50 is 21.7 µM with NCI-H226 lung, 2.04 µM in the assay on DU-145 prostate, 1.8 µM with RXF 393 renal and 2.67 µM with HCT-116 colon. The TGI in the assay with MDA-MB-231 breast was 12.2 µM; in the assay on A498 renal it was 37 µM; with SN12C renal, 4.97 µM; with HOP-92 NSCLC it was 5.21 µM; in the assay on SR leukemia, 5.26 µM; with BT-549 breast it was 15 µM. Moreover, the TGI in the assay on NCI-H226 lung was determined as 50.6 µM; in the assay with DU-145 prostate, 5.86 µM; in the assay on RXF 393 renal, 7.23 µM; in the assay on HCT-116 colon it was 10.3 µM.

Take `CN=C(N)N/N=C(\c1ccccc1)c1ccc(Br)cc1`: the GI50 in the assay on MDA-MB-231 breast was 0.358 µM; in the assay with A498 renal it was 0.232 µM; in the assay with SN12C renal it was 0.451 µM; in the assay on HOP-92 NSCLC it was 0.3 µM; with SR leukemia it was 0.31 µM; in the assay on BT-549 breast, 1.5 µM. The GI50 is 1.09 µM in the assay on NCI-H226 lung, 0.366 µM in the assay with DU-145 prostate, 0.247 µM with RXF 393 renal and 0.309 µM in the assay with HCT-116 colon. The TGI in the assay on MDA-MB-231 breast is 2.09 µM; in the assay on A498 renal, 1.01 µM; in the assay on SN12C renal, 6.27 µM; in the assay with HOP-92 NSCLC, 2.9 µM; in the assay on SR leukemia, 2.42 µM; with BT-549 breast, 12.7 µM. Further, the TGI in the assay on NCI-H226 lung is 11.8 µM; in the assay on DU-145 prostate, 10.5 µM; in the assay on RXF 393 renal, 0.711 µM; in the assay on HCT-116 colon, 3.3 µM.

Take `CN1CCN(Cc2ccc(C(=O)Nc3cncc(C#Cc4cnc(N)c5ccccc45)c3)cc2C(F)(F)F)CC1`: the GI50 in the assay on MDA-MB-231 breast is 1.37 µM; in the assay with A498 renal, 1.52 µM; in the assay with SN12C renal, 1.8 µM; with HOP-92 NSCLC, 2.42 µM; in the assay on SR leukemia, 2.09 µM; with BT-549 breast, 12.7 µM. Besides, the GI50 in the assay with NCI-H226 lung was 3.18 µM; with DU-145 prostate, 1.78 µM; with RXF 393 renal it was 1.55 µM; in the assay on HCT-116 colon, 1.36 µM. Further, the TGI in the assay on MDA-MB-231 breast was determined as 2.87 µM; in the assay with A498 renal, 3.73 µM; in the assay with SN12C renal it was 3.47 µM; in the assay on HOP-92 NSCLC, 11.3 µM; in the assay with SR leukemia it was 5.17 µM; with BT-549 breast it was 25.4 µM. In addition, the TGI in the assay with NCI-H226 lung came out at 27.5 µM; with DU-145 prostate it was 3.49 µM; in the assay on RXF 393 renal it was 3.01 µM; in the assay on HCT-116 colon, 2.7 µM.

With `CC(=O)OCC1OC(O[C@@H]2C[C@H]3C(C)(C)[C@H](OC(C)=O)CC[C@]3(C)[C@H]3CCC4=C([C@@H](C)C[C@@H](O)[C@H](O)C(C)(C)O)CC[C@@]4(C)[C@@]32C)C(O)C(O)C1O` (stereo partly drawn), the GI50 was 11.6 µM in the assay with MDA-MB-231 breast; 17.2 µM in the assay on A498 renal; 16.4 µM in the assay on SN12C renal; 14.6 µM in the assay with HOP-92 NSCLC; 12.2 µM in the assay on SR leukemia; 15.4 µM with BT-549 breast. Moreover, the GI50 was 17.3 µM in the assay on NCI-H226 lung, 17.8 µM with DU-145 prostate, 14.8 µM with RXF 393 renal and 14.2 µM in the assay on HCT-116 colon. Also, the TGI in the assay on MDA-MB-231 breast is 23.8 µM; in the assay on A498 renal it was 31.1 µM; in the assay on SN12C renal, 30 µM; with HOP-92 NSCLC it was 27.9 µM; with SR leukemia it was 27.8 µM; with BT-549 breast it was 28.7 µM. The TGI in the assay with NCI-H226 lung came to 32 µM; with DU-145 prostate, 31.8 µM; in the assay with RXF 393 renal it was 28 µM; in the assay on HCT-116 colon, 27.2 µM.

In the case of `CC(CO)(CO)N=Cc1cc(I)cc(I)c1O`, the TGI is 38.7 µM with MDA-MB-231 breast; 65.4 µM in the assay on A498 renal; 31.4 µM in the assay with SN12C renal; 32.9 µM in the assay with HOP-92 NSCLC; 54.1 µM with SR leukemia; 36.4 µM in the assay with BT-549 breast. Also, the TGI in the assay with NCI-H226 lung was 34.7 µM; in the assay on DU-145 prostate it was 29.8 µM; with RXF 393 renal it was 26.5 µM; with HCT-116 colon, 31.3 µM.
